# Measurements published in paper PMC3885398, “Evaluation of the Antitumor Effects of BPR1J-340, a Potent and Selective FLT3 Inhibitor, Alone or in Combination with an HDAC Inhibitor, Vorinostat, in AML Cancer” (PLoS ONE, 2014).
# Assays:
# Assay in all cases: Invitrogen SelectScreen kinase profiling
# Format in all cases: biochemical
# Conditions in all cases: 100 nM
# FLT4 (VEGFR3) = FLT4 (VEGFR3) (Homo sapiens, UniProt P35916); set-up: purchased Invitrogen SelectScreen
# Experimental: (§1) The FLT3 and VEGFR1/2 Kinase-Glo kinase assays were performed as reported by our earlier study. The VEGFR3 activity analysis was conducted using the same protocol described in the VEGFR1/2 assay. The kinase inhibition profiling and inhibitory activity of FLT3-D835Y, CSF1R, and TRKA were determined by Invitrogen SelectScreen® kinase profiling service (Carlsbad, California, USA).
# (§2) BPR1J-340, a urea-substituted 3-phenyl-1H-5-pyrazolylamine-based compound, was designed through chemical modification of sulfonamide series of derivatives (BPR1J-097 series) by a structure-activity relationship (SAR) study (Fig. 1), [32]. For kinase inhibition specificity screening, BPR1J-340 was tested against 59 protein kinases covering the major oncogenic kinases of human protein kinome. […] In addition, BPR1J-340 inhibited TRKA, which is associated with the growth and metastasis of breast cancers, with an IC50 value of 8 nM. Given the high similarity of the ATP binding pockets of FLT3 and the Aurora kinases, the inhibitory activity toward Aurora A and Aurora B were measured. […] Taken together, BPRJ-340 is a selective kinase inhibitor with in vitro activity against FLT3, VEGFR2, VEGFR3 and TRKA receptor tyrosine kinases.
# KDR (VEGFR2) = KDR (VEGFR2) (Homo sapiens, UniProt P35968); set-up: purchased Invitrogen SelectScreen
# Experimental: as §1, §2
# RAF1 (cRAF) Y340D Y341D = molecular target: T1, RAF1 (cRAF) Y340D Y341D (Homo sapiens, UniProt P04049, Y340D/Y341D)
# T1 construct: purchased Invitrogen SelectScreen
# Experimental: as §1, §2
# LYN A = molecular target: T2, LYN A (Homo sapiens, UniProt P07948)
# T2 construct: purchased Invitrogen SelectScreen
# Experimental: as §1, §2
# CHEK1 (CHK1) = molecular target: T3, CHEK1 (CHK1) (Homo sapiens, UniProt O14757)
# T3 construct: purchased Invitrogen SelectScreen
# Experimental: as §1, §2
# MAPK14 (p38 alpha) = molecular target: T4, MAPK14 (p38 alpha) (Homo sapiens, UniProt Q16539)
# T4 construct: purchased Invitrogen SelectScreen
# Experimental: as §1, §2
# PDGFRA (PDGFR alpha) = molecular target: T5, PDGFRA (PDGFR alpha) (Homo sapiens, UniProt P16234)
# T5 construct: purchased Invitrogen SelectScreen
# Experimental: as §1, §2
# ABL1 T315I = molecular target: T6, ABL1 T315I (Homo sapiens, UniProt P00519, T315I)
# T6 construct: purchased Invitrogen SelectScreen
# Experimental: as §1, §2
# AKT1 (PKB alpha) = molecular target: T7, AKT1 (PKB alpha) (Homo sapiens, UniProt P31749)
# T7 construct: purchased Invitrogen SelectScreen
# Experimental: as §1, §2
# FGFR1 = molecular target: T8, FGFR1 (Homo sapiens, UniProt P11362)
# T8 construct: purchased Invitrogen SelectScreen
# Experimental: as §1, §2
# CLK1 = molecular target: T9, CLK1 (Homo sapiens, UniProt P49759)
# T9 construct: purchased Invitrogen SelectScreen
# Experimental: as §1, §2
# BRAF = molecular target: T10, BRAF (Homo sapiens, UniProt P15056)
# T10 construct: purchased Invitrogen SelectScreen
# Experimental: as §1, §2
# IKBKE (IKK epsilon) = molecular target: T11, IKBKE (IKK epsilon) (Homo sapiens, UniProt Q14164)
# T11 construct: purchased Invitrogen SelectScreen
# Experimental: as §1, §2
# MST1R (RON) = molecular target: T12, MST1R (RON) (Homo sapiens, UniProt Q04912)
# T12 construct: purchased Invitrogen SelectScreen
# Experimental: as §1, §2
# GSK3B (GSK3 beta) = molecular target: T13, GSK3B (GSK3 beta) (Homo sapiens, UniProt P49841)
# T13 construct: purchased Invitrogen SelectScreen
# Experimental: as §1, §2
# JAK2 = molecular target: T14, JAK2 (Homo sapiens, UniProt O60674)
# T14 construct: purchased Invitrogen SelectScreen
# Experimental: as §1, §2
# MAPK8 (JNK1) = molecular target: T15, MAPK8 (JNK1) (Homo sapiens, UniProt P45983)
# T15 construct: purchased Invitrogen SelectScreen
# Experimental: as §1, §2
# ABL1 = molecular target: T16, ABL1 (Homo sapiens, UniProt P00519)
# T16 construct: purchased Invitrogen SelectScreen
# Experimental: as §1, §2
# AURKC (Aurora C) = molecular target: T17, AURKC (Aurora C) (Homo sapiens, UniProt Q9UQB9)
# T17 construct: purchased Invitrogen SelectScreen
# Experimental: as §1, §2
# TEK (Tie2) = molecular target: T18, TEK (Tie2) (Homo sapiens, UniProt Q02763)
# T18 construct: purchased Invitrogen SelectScreen
# Experimental: as §1, §2
# CDK2/cyclin A = molecular target: T19, CDK2/cyclin A (Homo sapiens, UniProt P24941)
# T19 construct: purchased Invitrogen SelectScreen
# Experimental: as §1, §2
# RPS6KA3 (RSK2) = molecular target: T20, RPS6KA3 (RSK2) (Homo sapiens, UniProt P51812)
# T20 construct: purchased Invitrogen SelectScreen
# Experimental: as §1, §2
# PIM1 = molecular target: T21, PIM1 (Homo sapiens, UniProt P11309)
# T21 construct: purchased Invitrogen SelectScreen
# Experimental: as §1, §2
# CDC42 BPA (MRCKA) = molecular target: T22, CDC42 BPA (MRCKA) (Homo sapiens, UniProt Q5VT25)
# T22 construct: purchased Invitrogen SelectScreen
# Experimental: as §1, §2
# SGK2 = molecular target: T23, SGK2 (Homo sapiens, UniProt Q9HBY8)
# T23 construct: purchased Invitrogen SelectScreen
# Experimental: as §1, §2
# MAP2K1 (MEK1) = molecular target: T24, MAP2K1 (MEK1) (Homo sapiens, UniProt Q02750)
# T24 construct: purchased Invitrogen SelectScreen
# Experimental: as §1, §2
# MET (cMet) = molecular target: T25, MET (cMet) (Homo sapiens, UniProt P08581)
# T25 construct: purchased Invitrogen SelectScreen
# Experimental: as §1, §2
# RPS6KA2 (RSK3) = molecular target: T26, RPS6KA2 (RSK3) (Homo sapiens, UniProt Q15349)
# T26 construct: purchased Invitrogen SelectScreen
# Experimental: as §1, §2
# TYK2 = molecular target: T27, TYK2 (Homo sapiens, UniProt P29597)
# T27 construct: purchased Invitrogen SelectScreen
# Experimental: as §1, §2
# PLK1 = molecular target: T28, PLK1 (Homo sapiens, UniProt P53350)
# T28 construct: purchased Invitrogen SelectScreen
# Experimental: as §1, §2
# ERBB2 (HER2) = molecular target: T29, ERBB2 (HER2) (Homo sapiens, UniProt P04626)
# T29 construct: purchased Invitrogen SelectScreen
# Experimental: as §1, §2
# SRC = molecular target: T30, SRC (Homo sapiens, UniProt P12931)
# T30 construct: purchased Invitrogen SelectScreen
# Experimental: as §1, §2
# JAK1 = molecular target: T31, JAK1 (Homo sapiens, UniProt P23458)
# T31 construct: purchased Invitrogen SelectScreen
# Experimental: as §1, §2
# RPS6KB1 (p70S6K) = molecular target: T32, RPS6KB1 (p70S6K) (Homo sapiens, UniProt P23443)
# T32 construct: purchased Invitrogen SelectScreen
# Experimental: as §1, §2
# SGKL (SGK3) = molecular target: T33, SGKL (SGK3) (Homo sapiens, UniProt Q96BR1)
# T33 construct: purchased Invitrogen SelectScreen
# Experimental: as §1, §2
# T28 sequence (P53350 whole entry): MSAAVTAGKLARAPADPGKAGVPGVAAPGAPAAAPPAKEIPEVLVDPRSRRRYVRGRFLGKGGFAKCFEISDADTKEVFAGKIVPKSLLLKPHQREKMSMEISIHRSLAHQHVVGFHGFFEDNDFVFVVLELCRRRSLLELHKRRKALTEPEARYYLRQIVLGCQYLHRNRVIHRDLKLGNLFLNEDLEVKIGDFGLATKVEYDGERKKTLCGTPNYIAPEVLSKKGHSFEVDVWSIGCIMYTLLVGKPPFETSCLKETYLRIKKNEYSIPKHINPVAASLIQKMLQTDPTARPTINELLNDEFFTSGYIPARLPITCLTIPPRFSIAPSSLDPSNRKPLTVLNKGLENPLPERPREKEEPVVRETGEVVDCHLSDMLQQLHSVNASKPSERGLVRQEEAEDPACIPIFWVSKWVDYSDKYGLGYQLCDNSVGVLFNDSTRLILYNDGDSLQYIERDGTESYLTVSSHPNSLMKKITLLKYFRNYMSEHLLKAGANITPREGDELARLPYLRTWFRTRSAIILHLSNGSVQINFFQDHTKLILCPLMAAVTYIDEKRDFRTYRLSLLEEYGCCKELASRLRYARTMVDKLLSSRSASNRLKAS
# T12 sequence (Q04912 25-1400): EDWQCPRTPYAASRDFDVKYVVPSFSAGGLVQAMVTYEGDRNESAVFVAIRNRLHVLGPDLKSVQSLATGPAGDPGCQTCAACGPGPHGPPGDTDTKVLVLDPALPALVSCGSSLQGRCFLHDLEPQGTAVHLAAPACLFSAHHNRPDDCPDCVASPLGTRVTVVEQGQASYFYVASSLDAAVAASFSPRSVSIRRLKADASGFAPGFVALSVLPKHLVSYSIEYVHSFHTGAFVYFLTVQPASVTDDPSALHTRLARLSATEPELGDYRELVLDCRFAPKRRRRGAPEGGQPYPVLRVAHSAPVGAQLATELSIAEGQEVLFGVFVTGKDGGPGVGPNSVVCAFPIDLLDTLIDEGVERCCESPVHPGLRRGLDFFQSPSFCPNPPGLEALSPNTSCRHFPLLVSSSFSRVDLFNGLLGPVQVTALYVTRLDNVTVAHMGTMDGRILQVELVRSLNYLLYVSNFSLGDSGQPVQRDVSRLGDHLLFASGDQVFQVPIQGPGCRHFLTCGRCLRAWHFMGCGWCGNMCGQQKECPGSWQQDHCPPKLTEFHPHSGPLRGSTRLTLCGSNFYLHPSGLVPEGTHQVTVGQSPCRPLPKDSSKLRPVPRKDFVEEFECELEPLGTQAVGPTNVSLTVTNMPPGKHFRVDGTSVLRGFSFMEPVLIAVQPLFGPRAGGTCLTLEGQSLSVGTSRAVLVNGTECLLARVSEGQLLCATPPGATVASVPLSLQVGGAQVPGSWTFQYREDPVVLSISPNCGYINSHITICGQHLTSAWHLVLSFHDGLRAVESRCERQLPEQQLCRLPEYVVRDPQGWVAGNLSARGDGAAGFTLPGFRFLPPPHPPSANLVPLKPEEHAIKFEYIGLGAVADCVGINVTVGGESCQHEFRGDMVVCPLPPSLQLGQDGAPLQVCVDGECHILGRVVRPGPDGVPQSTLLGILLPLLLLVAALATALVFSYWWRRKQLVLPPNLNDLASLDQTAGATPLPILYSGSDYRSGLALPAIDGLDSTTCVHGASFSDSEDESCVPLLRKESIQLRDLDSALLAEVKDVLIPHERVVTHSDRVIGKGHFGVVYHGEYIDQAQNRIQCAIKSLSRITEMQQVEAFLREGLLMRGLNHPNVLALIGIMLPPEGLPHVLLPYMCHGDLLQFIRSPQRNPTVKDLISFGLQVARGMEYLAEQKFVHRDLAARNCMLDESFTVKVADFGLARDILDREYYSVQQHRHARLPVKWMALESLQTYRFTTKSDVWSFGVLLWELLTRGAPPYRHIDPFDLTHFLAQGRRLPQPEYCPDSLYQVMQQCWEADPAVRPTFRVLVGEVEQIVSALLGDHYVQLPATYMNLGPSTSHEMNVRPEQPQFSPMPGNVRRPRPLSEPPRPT
# T7 sequence (P31749 whole entry): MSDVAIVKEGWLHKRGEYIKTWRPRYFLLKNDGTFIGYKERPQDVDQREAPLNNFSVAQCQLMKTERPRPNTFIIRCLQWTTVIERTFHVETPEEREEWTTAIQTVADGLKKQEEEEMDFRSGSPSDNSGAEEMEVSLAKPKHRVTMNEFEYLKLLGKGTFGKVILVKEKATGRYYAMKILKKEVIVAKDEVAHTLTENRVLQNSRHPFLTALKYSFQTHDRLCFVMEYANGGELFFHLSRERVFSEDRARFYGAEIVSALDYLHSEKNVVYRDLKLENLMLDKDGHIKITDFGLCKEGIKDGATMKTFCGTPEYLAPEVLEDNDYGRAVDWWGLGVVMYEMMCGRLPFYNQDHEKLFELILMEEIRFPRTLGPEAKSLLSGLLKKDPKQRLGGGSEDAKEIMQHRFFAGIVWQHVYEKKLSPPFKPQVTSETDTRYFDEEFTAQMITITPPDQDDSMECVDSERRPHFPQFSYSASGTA
# T21 sequence (P11309 whole entry): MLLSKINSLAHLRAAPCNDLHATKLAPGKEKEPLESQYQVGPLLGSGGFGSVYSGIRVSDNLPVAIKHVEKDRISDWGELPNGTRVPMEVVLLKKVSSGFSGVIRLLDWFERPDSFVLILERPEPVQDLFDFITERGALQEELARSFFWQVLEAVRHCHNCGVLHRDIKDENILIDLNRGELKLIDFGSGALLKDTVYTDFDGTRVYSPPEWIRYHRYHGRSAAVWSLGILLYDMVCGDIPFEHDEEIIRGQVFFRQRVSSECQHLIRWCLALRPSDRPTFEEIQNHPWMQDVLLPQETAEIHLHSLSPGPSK
# FLT4 (VEGFR3), sequence (P35916 25-1363): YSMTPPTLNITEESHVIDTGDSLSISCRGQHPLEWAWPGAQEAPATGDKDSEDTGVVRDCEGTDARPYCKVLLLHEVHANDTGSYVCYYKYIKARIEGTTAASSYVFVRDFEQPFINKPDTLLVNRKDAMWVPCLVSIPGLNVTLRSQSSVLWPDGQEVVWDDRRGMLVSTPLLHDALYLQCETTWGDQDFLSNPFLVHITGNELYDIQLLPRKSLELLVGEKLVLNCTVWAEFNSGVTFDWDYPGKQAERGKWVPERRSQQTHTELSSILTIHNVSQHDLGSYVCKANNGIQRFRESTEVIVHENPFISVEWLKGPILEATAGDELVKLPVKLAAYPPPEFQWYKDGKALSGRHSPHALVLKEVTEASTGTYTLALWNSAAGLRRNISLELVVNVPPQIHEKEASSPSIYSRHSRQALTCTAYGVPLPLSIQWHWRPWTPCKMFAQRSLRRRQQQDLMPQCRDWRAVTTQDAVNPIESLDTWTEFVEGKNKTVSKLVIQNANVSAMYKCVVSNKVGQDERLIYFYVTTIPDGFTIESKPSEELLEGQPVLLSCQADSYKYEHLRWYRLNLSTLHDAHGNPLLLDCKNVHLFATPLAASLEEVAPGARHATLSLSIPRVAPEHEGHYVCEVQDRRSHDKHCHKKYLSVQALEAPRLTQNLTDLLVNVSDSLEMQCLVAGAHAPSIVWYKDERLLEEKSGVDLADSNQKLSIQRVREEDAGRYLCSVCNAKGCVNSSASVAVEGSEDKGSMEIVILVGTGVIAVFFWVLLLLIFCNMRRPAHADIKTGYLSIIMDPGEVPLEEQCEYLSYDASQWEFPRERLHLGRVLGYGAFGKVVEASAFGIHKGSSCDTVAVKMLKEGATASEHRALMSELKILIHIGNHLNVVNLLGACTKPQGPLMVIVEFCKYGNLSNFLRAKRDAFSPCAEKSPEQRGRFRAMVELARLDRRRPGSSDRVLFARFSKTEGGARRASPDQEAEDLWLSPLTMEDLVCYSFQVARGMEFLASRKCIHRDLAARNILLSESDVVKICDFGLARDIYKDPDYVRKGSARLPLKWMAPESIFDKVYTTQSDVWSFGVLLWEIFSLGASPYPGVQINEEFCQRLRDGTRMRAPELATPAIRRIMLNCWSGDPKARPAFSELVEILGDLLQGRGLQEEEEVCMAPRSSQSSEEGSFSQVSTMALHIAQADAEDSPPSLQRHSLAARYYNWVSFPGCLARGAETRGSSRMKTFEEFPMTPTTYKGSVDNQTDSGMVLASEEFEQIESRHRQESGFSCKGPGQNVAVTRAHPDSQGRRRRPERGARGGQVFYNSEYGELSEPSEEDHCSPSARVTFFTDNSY
# T4 sequence (Q16539 whole entry): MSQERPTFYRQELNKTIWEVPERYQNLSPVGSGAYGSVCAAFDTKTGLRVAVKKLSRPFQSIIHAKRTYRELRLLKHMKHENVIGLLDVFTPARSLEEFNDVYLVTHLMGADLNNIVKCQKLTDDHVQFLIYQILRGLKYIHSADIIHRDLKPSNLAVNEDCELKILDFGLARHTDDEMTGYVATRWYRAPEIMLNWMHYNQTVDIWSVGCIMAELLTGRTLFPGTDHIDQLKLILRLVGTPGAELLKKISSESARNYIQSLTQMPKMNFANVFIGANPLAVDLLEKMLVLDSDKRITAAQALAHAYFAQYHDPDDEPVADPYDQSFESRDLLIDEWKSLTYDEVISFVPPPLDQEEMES
# T2 sequence (P07948 whole entry): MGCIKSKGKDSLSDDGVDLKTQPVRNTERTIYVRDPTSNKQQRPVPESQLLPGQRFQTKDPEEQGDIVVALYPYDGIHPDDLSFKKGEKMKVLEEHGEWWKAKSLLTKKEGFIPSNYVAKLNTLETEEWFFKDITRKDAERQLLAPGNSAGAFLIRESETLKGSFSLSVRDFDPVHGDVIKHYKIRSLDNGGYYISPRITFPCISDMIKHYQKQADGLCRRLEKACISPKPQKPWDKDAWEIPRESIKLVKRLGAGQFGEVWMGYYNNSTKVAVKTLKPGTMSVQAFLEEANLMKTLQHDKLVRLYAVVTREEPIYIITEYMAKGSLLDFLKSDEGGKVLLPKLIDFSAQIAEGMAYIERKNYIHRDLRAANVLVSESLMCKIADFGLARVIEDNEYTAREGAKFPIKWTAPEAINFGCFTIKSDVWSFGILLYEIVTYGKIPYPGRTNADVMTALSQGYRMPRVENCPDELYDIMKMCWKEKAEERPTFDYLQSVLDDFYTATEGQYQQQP
smiles,measurement,setting,value
"CCc1cc(NC(=O)NCc2ccc(-c3cc(NC(=O)c4ccc(CN5CCN(C)CC5)cc4)[nH]n3)cc2)no1 [BPR1J-340, N1-(3-4-[([(5-ethyl-3-isoxazolyl)amino]carbonylamino)methyl]phenyl-1H-5-pyrazolyl)-4-[(4-methylpiperazino)methyl]benzamide]",inhibition at 0.1 µM,FLT4 (VEGFR3),45%
same,inhibition at 0.1 µM,KDR (VEGFR2),69%
same,inhibition at 0.1 µM,RAF1 (cRAF) Y340D Y341D,4%
same,inhibition at 0.1 µM,LYN A,17%
same,inhibition at 0.1 µM,CHEK1 (CHK1),27%
same,inhibition at 0.1 µM,MAPK14 (p38 alpha),24%
same,inhibition at 0.1 µM,PDGFRA (PDGFR alpha),38%
same,inhibition at 0.1 µM,ABL1 T315I,15%
same,inhibition at 0.1 µM,AKT1 (PKB alpha),-2%
same,inhibition at 0.1 µM,FGFR1,17%
same,inhibition at 0.1 µM,CLK1,6%
same,inhibition at 0.1 µM,BRAF,5%
same,inhibition at 0.1 µM,IKBKE (IKK epsilon),21%
same,inhibition at 0.1 µM,MST1R (RON),6%
same,inhibition at 0.1 µM,GSK3B (GSK3 beta),36%
same,inhibition at 0.1 µM,JAK2,9%
same,inhibition at 0.1 µM,MAPK8 (JNK1),14%
same,inhibition at 0.1 µM,ABL1,7%
same,inhibition at 0.1 µM,AURKC (Aurora C),19%
same,inhibition at 0.1 µM,TEK (Tie2),42%
same,inhibition at 0.1 µM,CDK2/cyclin A,5%
same,inhibition at 0.1 µM,RPS6KA3 (RSK2),0%
same,inhibition at 0.1 µM,PIM1,-5%
same,inhibition at 0.1 µM,CDC42 BPA (MRCKA),-8%
same,inhibition at 0.1 µM,SGK2,22%
same,inhibition at 0.1 µM,MAP2K1 (MEK1),0%
same,inhibition at 0.1 µM,MET (cMet),17%
same,inhibition at 0.1 µM,RPS6KA2 (RSK3),9%
same,inhibition at 0.1 µM,TYK2,23%
same,inhibition at 0.1 µM,PLK1,4%
same,inhibition at 0.1 µM,ERBB2 (HER2),11%
same,inhibition at 0.1 µM,SRC,34%
same,inhibition at 0.1 µM,JAK1,-3%
same,inhibition at 0.1 µM,RPS6KB1 (p70S6K),-18%
same,inhibition at 0.1 µM,SGKL (SGK3),12%
